In ChEMBL document CHEMBL1201862, “PubChem BioAssay data set” (2004):
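In this assay, cells in 96-well plates receive the compound at five concentrations for 48 hours. Endpoints are linearly interpolated between the surrounding concentrations. GI50: concentration for 50% inhibition of growth.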 Active and inactive are the calls of the source. Rule as the data show it: active = GI50 up to about 1.1 µM and inactive = higher.

Tests used:
Test in all cases: inhibition of tumour cell growth, NCI panel, 48 h
DLD-1 = test system: DLD-1
DMS-114 = test system: DMS-114
HOP-18 = test system: HOP-18
LXFL 529 = test system: LXFL 529
M19-MEL = test system: M19-MEL
SNB-78 = test system: SNB-78
XF498 = test system: XF498
BT-549 = test system: BT-549
RXF 631 = test system: RXF 631

Structure (SMILES) | GI50 (DLD-1) | GI50 (DMS-114) | GI50 (HOP-18) | GI50 (LXFL 529) | GI50 (M19-MEL) | GI50 (SNB-78) | GI50 (BT-549) | further results
O=C(O)C(Cl)(Cl)Cl | > 100 µM (inactive) | > 100 µM (inactive) | 80 µM (inactive) | > 100 µM (inactive) | > 100 µM (inactive) | > 100 µM (inactive) | – | GI50 (XF498): > 100 µM (inactive)
COC(=O)C(C(=O)C(=O)Nc1c(C)cccc1C(C)(C)C)c1nc2ccc(Cl)cc2nc1O (stereo not drawn) | – | – | – | – | – | – | > 100 µM (inactive) | –
COC(=O)[C@H](Cc1ccccc1)NC(=O)/C(=C/C(C)C)NC(=O)[C@H](CCSC)NC=O | > 100 µM (inactive) | > 100 µM (inactive) | > 100 µM (inactive) | > 100 µM (inactive) | > 100 µM (inactive) | – | – | GI50 (XF498): > 100 µM (inactive)
C=CCCCCCCCCCOC1C=CC(O)C(CO)O1 (stereo not drawn) | – | – | – | – | – | – | 48.4 µM (inactive) | –
C=C1C(=O)O[C@H]2C[C@@]3(COC(C)=O)C=COC=C(COC(=O)C(C)C)C3CC12 (stereo partly drawn) | – | – | – | – | – | – | > 100 µM (inactive) | –
O=C(CNC(=O)c1ccccc1)Oc1c(Cl)c(Cl)c(Cl)c(Cl)c1Cl | – | – | – | – | – | – | 20.5 µM (inactive) | –
COc1ccccc1/N=N/C(=N/NC(=O)c1ccc(C)cc1)c1ccc(N(CCC#N)CCC#N)cc1OC | – | – | – | – | – | – | 32.3 µM (inactive) | –
COc1ccc(C=O)c(NC(=O)C(C)C)c1 | – | 24.4 µM (inactive) | 39.7 µM (inactive) | 44.9 µM (inactive) | 21 µM (inactive) | 66.1 µM (inactive) | – | GI50 (XF498): 21.9 µM (inactive)
C=C(C)COC1CCCCO1 (stereo not drawn) | – | – | – | – | – | – | > 100 µM (inactive) | –
O=c1cccccc1NCCCCCCNc1cccccc1=O | > 100 µM (inactive) | > 100 µM (inactive) | > 100 µM (inactive) | > 100 µM (inactive) | > 100 µM (inactive) | > 100 µM (inactive) | – | GI50 (RXF 631): > 100 µM (inactive)
O=C1c2ccccc2CCCCCCCCCCC12OCCCO2 | 60.4 µM (inactive) | 12.2 µM (inactive) | 47.9 µM (inactive) | 58.9 µM (inactive) | 36.6 µM (inactive) | 22.6 µM (inactive) | – | –
CCOc1ccc(C2=C(Cl)c3cc(OC)c(OC)cc3C2Cl)cc1 (stereo not drawn) | 37.6 µM (inactive) | 18.6 µM (inactive) | 42.8 µM (inactive) | 26.8 µM (inactive) | 45.2 µM (inactive) | 27.4 µM (inactive) | – | GI50 (XF498): 19.6 µM (inactive)
CC(CC(=O)O)(CC(=O)O)C(=O)O | – | – | – | – | – | – | > 100 µM (inactive) | –
O=NN1CCCS1(=O)=O | – | – | – | – | – | – | > 100 µM (inactive) | –
CCCCCC(=O)c1ccc2[nH]c3c(C)cc([N+](=O)[O-])c(C)c3c2c1 | – | > 100 µM (inactive) | – | – | > 100 µM (inactive) | > 100 µM (inactive) | – | GI50 (XF498): > 100 µM (inactive)
COC(=O)C1=C(OC)c2cc3c(cc2C(c2cc(OC)c(OC)c(OC)c2)C1C(=O)OC)OCO3 (stereo not drawn) | > 100 µM (inactive) | > 100 µM (inactive) | > 100 µM (inactive) | > 100 µM (inactive) | > 100 µM (inactive) | > 100 µM (inactive) | – | GI50 (XF498): > 100 µM (inactive)
O=C(CC(=O)c1ccccc1)CC(O)(c1ccccc1)c1ccccc1 | 4.18 µM (inactive) | 2.06 µM (inactive) | – | 3.24 µM (inactive) | 3.12 µM (inactive) | 21 µM (inactive) | – | –
COc1ccc(-c2cc(O)c3cc(OC)c(OC)cc3n2)cc1OC | – | – | – | – | – | – | > 100 µM (inactive) | –
CO/C=C(/C(=O)OC)c1ccccc1Oc1c(F)c(F)c(F)c(F)c1F | – | – | – | – | – | – | > 100 µM (inactive) | –
CC1=C(C(=O)NCCc2ccccc2)CC(C(=O)NCCc2ccccc2)=C(C)N1 | – | – | – | – | – | – | > 100 µM (inactive) | –
O=c1cc[nH]c2c1ccc1ncccc12 | > 100 µM (inactive) | > 100 µM (inactive) | > 100 µM (inactive) | > 100 µM (inactive) | > 100 µM (inactive) | > 100 µM (inactive) | – | GI50 (RXF 631): > 100 µM (inactive)
Cc1nnc(N)nc1C/C=C/C(Sc1ccc(Cl)cc1)c1ccccc1 (stereo not drawn) | – | – | – | – | – | – | 2.13 µM (inactive) | –
CC(=O)OC(OC(C)=O)c1ccc2ccc3cccc4ccc1c2c34 | – | – | – | – | – | – | 25.1 µM (inactive) | –
O=C(O)C12CC3(C(=O)O)CC(C(=O)O)(CC(C(=O)O)(C1)C3=O)C2=O | – | – | – | – | – | – | > 100 µM (inactive) | –
CP(=O)(CCSc1ccccc1)c1ccccc1 (stereo not drawn) | > 100 µM (inactive) | > 100 µM (inactive) | > 100 µM (inactive) | > 100 µM (inactive) | > 100 µM (inactive) | > 100 µM (inactive) | – | GI50 (XF498): > 100 µM (inactive)
CSc1nc(C)c(CCOC(C)=O)c(Cl)n1 | – | – | – | – | – | – | > 100 µM (inactive) | –
CCOC(=O)C1C(=O)CC(O)(c2ccccc2)C(C(=O)OCC)C1c1ccc(OC)cc1 (stereo not drawn) | – | – | – | – | – | – | 34.7 µM (inactive) | –
CC(=O)OC(Cc1c(O)c2c(C)cccc2oc1=O)C(C)(C)O (stereo not drawn) | – | – | – | – | – | – | > 100 µM (inactive) | –
C#CC(O)Cc1ccc(OC)c2occc12 (stereo not drawn) | – | – | – | – | – | – | > 100 µM (inactive) | –
Cc1ccc(S(=O)(=O)N/N=C/C(=C/c2ccc(Cl)cc2)CC(/C=N/NS(=O)(=O)c2ccc(C)cc2)=C\c2ccc(Cl)cc2)cc1 | – | – | – | – | – | – | 6.15 µM (inactive) | –
